Assay [1] has as its target T1, GST-tagged Tnks-1 (1023-1327 aa) (Homo sapiens, UniProt O95271).
T1 construct: GST-tagged Tnks-1 (1023-1327 aa, prepared in-house); made in house
Kind of assay: TNKS1 activity ELISA (autoparsylation assay). Type of assay: biochemical. To be noted: read-out: IC50 TNKS1 ELISA. As for the experimental part:
(§1) Description of the TNKS1 and TNKS2 ELISA Assay
(§2) Then the activity assay with biotinylated NAD is performed in the absence/presence of the compounds. During the enzymatic reaction GST tagged TNKS transfers biotinylated ADP-ribose to itself from biotinylated NAD as co-substrate. For the detection streptavidin-HRP conjugate is added that binds to the biotinylated TNKS and is thereby captured to the plates. The amount of biotinylated resp. autoparsylated TNKS is detected with a luminescence substrate for HRP. The level of the luminescence signal correlates directly with the amount of autoparsylated TNKS and therefore with activity of TNKS.
(§3) The activity ELISA is performed in 384 well Glutathione coated microtiter plates (Express capture Glutathione coated plate, Biocat, Heidelberg, Germany). The plates are pre-equilibrated with PBS. […] The plates are washed 3 times with PBS-Tween-20. The wells are blocked by incubation at room temperature for 20 minutes with 50 μl blocking buffer (PBS, 0.05% Tween-20, 0.5% BSA). Afterwards the plates are washed 3 times with PBS-Tween-20. […] The reaction is stopped by 3 times washing with PBS-Tween-20. For the detection 50 μl of 20 ng/μl Streptavidin, HRP conjugate (MoBiTec, Gottingen, Germany) in PBS/0.05% Tween-20/0.01% BSA are added and the plates are incubated for 30 minutes at room temperature. After three times washing with PBS-Tween-20 50 μl of SuperSignal ELISA Femto Maximum sensitivity substrate solution (ThermoFisherScientific (Pierce), Bonn, Germany) are added. Following a 1 minute incubation at room temperature luminescence signals are measured with an Envision multimode reader (Perkin Elmer LAS Germany GmbH) at 700 nm. The full value used is the inhibitor-free reaction. […] The inhibitory values (IC50) are determined using either the program Symyx Assay Explorer® or Condosseo® from GeneData.

The subject of a further assay is tankyrase 1/2. Kind of assay: Cellular inhibition of tankyrase: increase of Axin2 level in DLD1 cells (Luminex). The assay is classed as cell-based. The following applies: read-out: EC50 tankyrase 1/2 (cell assay), 24 hours. As to the method: Measurement of Cellular Inhibition of Tankyrase
Cells of the colon carcinoma cell line DLD1 are plated in 96 well plates with 1.5×10^4 cells per well. Next day, cells are treated with a serial dilution of test compound in seven steps as triplicates with a final DMSO concentration of 0.3%. After 24 hours, cells are lysed in lysis buffer (20 mM Tris/HCl pH 8.0, 150 mM NaCl, 1% NP40, 10% Glycerol) and lysates are cleared by centrifugation through a 96 well filter plate (0.65 μm). […] The amount of isolated Axin2 protein is determined in a Luminex^200 machine (Luminex Corporation) according to the manufacturer's instruction by counting 100 events per well. […] For analysis, the obtained data are normalized against the untreated solvent control and fitted for determination of the EC50 values using the Assay Explorer software (Accelrys).

Assay [2] addresses GST-tagged Tnks-2 (873-1166 aa) (Homo sapiens, UniProt Q9H2K2). Kind of assay: biochemical. As to the method: as §1, §2, §3

Each structure is given as a SMILES string. Bounds are passed on as bounds.

T1 sequence (O95271 1023-1327): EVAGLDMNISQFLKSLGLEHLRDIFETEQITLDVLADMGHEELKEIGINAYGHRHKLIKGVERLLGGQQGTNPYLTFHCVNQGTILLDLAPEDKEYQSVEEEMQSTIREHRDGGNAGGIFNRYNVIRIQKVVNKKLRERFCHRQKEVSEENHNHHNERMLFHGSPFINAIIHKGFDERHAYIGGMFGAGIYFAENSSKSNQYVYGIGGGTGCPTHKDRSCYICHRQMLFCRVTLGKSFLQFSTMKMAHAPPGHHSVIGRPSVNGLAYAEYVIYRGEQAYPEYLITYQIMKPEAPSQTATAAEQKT
GST-tagged Tnks-2 (873-1166 aa), sequence (Q9H2K2 873-1166): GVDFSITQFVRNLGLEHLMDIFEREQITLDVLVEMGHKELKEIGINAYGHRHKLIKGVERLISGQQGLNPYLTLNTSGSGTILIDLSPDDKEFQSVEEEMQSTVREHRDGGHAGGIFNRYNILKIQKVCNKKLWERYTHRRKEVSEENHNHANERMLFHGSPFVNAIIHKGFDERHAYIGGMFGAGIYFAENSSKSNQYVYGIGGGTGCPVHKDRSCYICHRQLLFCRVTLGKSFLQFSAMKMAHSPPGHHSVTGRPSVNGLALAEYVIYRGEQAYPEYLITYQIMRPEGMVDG

Take `CCC(O)(CC)c1ccc(-c2nc3ccc(F)cc3c(=O)[nH]2)cc1` [Compound A14, 2-[4-(1-ethyl-1-hydroxy-propyl)phenyl]-6-fluoro-3H-quinazolin-4-one]: the half-maximal inhibitory concentration (IC50) in assay [1] and in assay [2] was < 300 nM in each case. For the same compound, the EC50 in the assay with tankyrase 1/2 was < 300 nM.
As for `O=c1[nH]c(-c2ccc(C3(O)CCCC3)cc2)nc2ccc(F)cc12` [Compound A16, 6-fluoro-2-[4-(1-hydroxycyclopentyl)phenyl]-3H-quinazolin-4-one], the IC50 in assay [1] and in assay [2] was < 300 nM in each case. Moreover, the EC50 in the assay with tankyrase 1/2 was in the range of 300 to 3000 nM.
Take `CC(C)(O)c1ccc(-c2nc3c(F)cc(F)c(F)c3c(=O)[nH]2)cc1` [Compound A26, 5,6,8-trifluoro-2-[4-(1-hydroxy-1-methyl-ethyl)-phenyl]-3H-quinazolin-4-one]: the IC50 in assay [1] and in assay [2] was < 300 nM in each case. The EC50 with tankyrase 1/2 was < 300 nM.
Take `Cc1cc(F)cc2c(=O)[nH]c(-c3ccc(N4CCC(O)CC4)cc3)nc12` [Compound A29, 6-fluoro-2-[4-(4-hydroxy-piperidin-1-yl)-phenyl]-8-methyl-3H-quinazolin-4-one]: the IC50 in assay [1] and in assay [2] was < 300 nM in each case. Besides, the EC50 in the assay on tankyrase 1/2 was < 300 nM.
For the compound `Cc1cc(F)cc2c(=O)[nH]c(-c3ccc(N4CCC(CO)CC4)cc3)nc12` [Compound A31, 6-fluoro-2-[4-(4-hydroxymethyl-piperidin-1-yl)-phenyl]-8-methyl-3H-quinazolin-4-one], the concentration for half-maximal inhibition (IC50) in assay [1] and in assay [2] was < 300 nM throughout. Further, the EC50 with tankyrase 1/2 was < 300 nM.

As usually defined, the IC50 is the concentration that gives 50% inhibition.

Source of the values: patent US9388142B2, “Quinazolinone derivatives as PARP inhibitors” (MERCK PATENT GMBH, priority 2012, dated 2016).
